Patent US20120058989A1, “ANTIBACTERIAL FLUOROQUINOLONE ANALOGS” (Achaogen, Inc., priority 2008, published 2012)

Legend:
Experiment in all cases: MIC, CLSI broth microdilution
Type in all cases: cell-based
[1] = test system: A. baumannii AABA1065 (Fluoroquinolone-susceptible); conditions: Table 2
Protocol: (§1) Minimum inhibitory concentrations (MIC) were determined by reference Clinical and Laboratory Standards Institute (CLSI) broth microdilution methods per M7-A7 [2006]. Quality control ranges utilizing E. coli ATCC 25922, P. aeruginosa ATCC 27853 and S. aureus ATCC 29213, and interpretive criteria for comparator agents were as published in CLSI M100-S17 [2007]. Briefly, serial two-fold dilutions of the test compounds were prepared at 2× concentration in Mueller Hinton Broth. The compound dilutions were mixed in 96-well assay plates in a 1:1 ratio with bacterial inoculum. The inoculum was prepared by suspension of a colony from an agar plate that was prepared the previous day. Bacteria were suspended in sterile saline and added to each assay plate to obtain a final concentration of 5×10^5 CFU/mL. The plates were incubated at 35° C. for 20 hours in ambient air.

[2] = test system: S. aureus ASAU001 (Fluoroquinolone-susceptible, ATCC29213); conditions: Table 2
Protocol: as §1

[3] = test system: P. aeruginosa APAE001 (Fluoroquinolone-susceptible, ATCC27853); conditions: Table 2
Protocol: as §1

[4] = test system: A. baumannii AABA1009 (Fluoroquinolone-resistant); conditions: Table 2
Protocol: as §1

[5] = test system: S. aureus ASAU1031 (Fluoroquinolone-resistant); conditions: Table 2
Protocol: as §1

[6] = test system: E. coli AECO001 (Fluoroquinolone susceptible, ATCC25922); conditions: Table 2, 35° C., 20 hours
Protocol: as §1

[7] = test system: E. coli AECO066 (Fluoroquinolone-resistant); conditions: Table 2
Protocol: as §1

[8] = test system: P. aeruginosa APAE054 (Fluoroquinolone-resistant); conditions: Table 2
Protocol: as §1

[9] = test system: S. pneumoniae ASPN001 (Fluoroquinolone-susceptible, ATCC49619); conditions: Table 2
Protocol: as §1

[10] = test system: S. pneumoniae ASPN1027 (Fluoroquinolone-resistant); conditions: Table 2
Protocol: as §1

Row | Compound | MIC AABA 1065 [1] | MIC ASAU 001 [2] | MIC APAE 001 [3] | MIC AABA 1009 [4] | MIC ASAU 1031 [5] | MIC AECO 001 [6] | MIC AECO 066 [7] | MIC APAE 054 [8] | MIC ASPN 001 [9] | MIC ASPN 1027 [10]
1 | O=C(O)c1cn(C2CC2)c2c3c(c(F)cc2c1=O)N1C[C@H](O)C[C@H]1CC=C3 [18/6, (7aR,9R)-4-Cyclopropyl-12-fluoro-9-hydroxy-1-oxo-4,7,7a,8,9,10-hexahydro-1H-pyrrolo[1′,2′:1,7]azepino-[2,3-h]quinoline-2-carboxylic acid] | B (MIC's of greater than 1.0 μg/mL to 8.0 μg/mL = B) | A (MIC's of 1.0 μg/mL or less = A) | C (MIC's of greater than 8.0 μg/mL = C) | C (MIC's of greater than 8.0 μg/mL = C) | B (MIC's of greater than 1.0 μg/mL to 8.0 μg/mL = B) | A (MIC's of 1.0 μg/mL or less = A) | C (MIC's of greater than 8.0 μg/mL = C) | C (MIC's of greater than 8.0 μg/mL = C) | A (MIC's of 1.0 μg/mL or less = A) | C (MIC's of greater than 8.0 μg/mL = C)
2 | O=C(O)c1cn(C2CC2)c2c3c(c(F)cc2c1=O)N1C[C@H](O)C[C@H]1CCC3 [18/8, (7aR,9R)-4-Cyclopropyl-12-fluoro-9-hydroxy-1-oxo-4,5,6,7,7a,8,9,10-octahydro-1H-pyrrolo-[1′,2′:1,7]aze-pino[2,3-h]quinoline-2-carboxylic acid] | B (MIC's of greater than 1.0 μg/mL to 8.0 μg/mL = B) | A (MIC's of 1.0 μg/mL or less = A) | C (MIC's of greater than 8.0 μg/mL = C) | C (MIC's of greater than 8.0 μg/mL = C) | B (MIC's of greater than 1.0 μg/mL to 8.0 μg/mL = B) | A (MIC's of 1.0 μg/mL or less = A) | C (MIC's of greater than 8.0 μg/mL = C) | C (MIC's of greater than 8.0 μg/mL = C) | A (MIC's of 1.0 μg/mL or less = A) | C (MIC's of greater than 8.0 μg/mL = C)
3 | O=C1C[C@H]2CC=Cc3c(c(F)cc4c(=O)c(C(=O)O)cn(C5CC5)c34)N2C1 [18/10, (7aR)-4-Cyclopropyl-12-fluoro-1,9-dioxo-4,7,7a,8,9,10-hexahydro-1H-pyrrolo[1′,2′:1,7]azepino[2,3-h]quino-line-2-carboxylic acid] | C (MIC's of greater than 8.0 μg/mL = C) | A (MIC's of 1.0 μg/mL or less = A) | C (MIC's of greater than 8.0 μg/mL = C) | C (MIC's of greater than 8.0 μg/mL = C) | C (MIC's of greater than 8.0 μg/mL = C) | B (MIC's of greater than 1.0 μg/mL to 8.0 μg/mL = B) | C (MIC's of greater than 8.0 μg/mL = C) | C (MIC's of greater than 8.0 μg/mL = C) | B (MIC's of greater than 1.0 μg/mL to 8.0 μg/mL = B) | C (MIC's of greater than 8.0 μg/mL = C)
4 | O=C(O)c1cn(C2CC2)c2c3c(c(F)cc2c1=O)N1CC(=NO)C[C@H]1CC=C3 [18/11, (7aR,9E)-4-Cyclopropyl-12-fluoro-9-(hydroxyimino)-1-oxo-4,7,7a,8,9,10-hexahydro-1H-pyrrolo[1′,2′:1,7]aze-pino[2,3-h]quinoline-2-carboxylic acid] | A (MIC's of 1.0 μg/mL or less = A) | A (MIC's of 1.0 μg/mL or less = A) | B (MIC's of greater than 1.0 μg/mL to 8.0 μg/mL = B) | C (MIC's of greater than 8.0 μg/mL = C) | A (MIC's of 1.0 μg/mL or less = A) | A (MIC's of 1.0 μg/mL or less = A) | C (MIC's of greater than 8.0 μg/mL = C) | C (MIC's of greater than 8.0 μg/mL = C) | A (MIC's of 1.0 μg/mL or less = A) | A (MIC's of 1.0 μg/mL or less = A)
5 | O=C(O)c1cn(C2CC2)c2c3c(c(F)cc2c1=O)N1CC[C@H](O)[C@H]1CC=C3 [19/5, (7aR,8S)-4-Cyclopropyl-12-fluoro-8-hydroxy-1-oxo-4,7,7a,8,9,10-hexahydro-1H-pyrrolo[1′,2′:1,7]azepino[2,3-h]quinoline-2-carboxylic acid] | B (MIC's of greater than 1.0 μg/mL to 8.0 μg/mL = B) | A (MIC's of 1.0 μg/mL or less = A) | C (MIC's of greater than 8.0 μg/mL = C) | C (MIC's of greater than 8.0 μg/mL = C) | C (MIC's of greater than 8.0 μg/mL = C) | B (MIC's of greater than 1.0 μg/mL to 8.0 μg/mL = B) | C (MIC's of greater than 8.0 μg/mL = C) | C (MIC's of greater than 8.0 μg/mL = C) | B (MIC's of greater than 1.0 μg/mL to 8.0 μg/mL = B) | C (MIC's of greater than 8.0 μg/mL = C)
6 | NC[C@H]1C[C@@H]2CC=Cc3c(c(F)cc4c(=O)c(C(=O)O)cn(C5CC5)c34)N2C1.O=C(O)C(F)(F)F [20/14, (7aS,9R)-9-(Aminomethyl)-4-cyclopropyl-12-fluoro-1-oxo-4,7,7a,8,9,10-hexahydro-1H-pyrrolo[1′,2′:1,7]azepino[2,3-h]quinoline-2-carboxylic acid trifluoroacetate] | A (MIC's of 1.0 μg/mL or less = A) | A (MIC's of 1.0 μg/mL or less = A) | B (MIC's of greater than 1.0 μg/mL to 8.0 μg/mL = B) | C (MIC's of greater than 8.0 μg/mL = C) | C (MIC's of greater than 8.0 μg/mL = C) | A (MIC's of 1.0 μg/mL or less = A) | C (MIC's of greater than 8.0 μg/mL = C) | C (MIC's of greater than 8.0 μg/mL = C) | A (MIC's of 1.0 μg/mL or less = A) | C (MIC's of greater than 8.0 μg/mL = C)
7 | NC[C@H]1C[C@@H]2CCCc3c(c(F)cc4c(=O)c(C(=O)O)cn(C5CC5)c34)N2C1.O=C(O)C(F)(F)F [20/16, (7aS,9R)-9-(Aminomethyl)-4-cyclopropyl-12-fluoro-1-oxo-4,5,6,7,7a,8,9,10-octahydro-1H-pyrrolo[1′,2′:1,7]-azepino[2,3-h]quinoline-2-carboxylic acid trifluoroacetate] | A (MIC's of 1.0 μg/mL or less = A) | A (MIC's of 1.0 μg/mL or less = A) | B (MIC's of greater than 1.0 μg/mL to 8.0 μg/mL = B) | C (MIC's of greater than 8.0 μg/mL = C) | C (MIC's of greater than 8.0 μg/mL = C) | A (MIC's of 1.0 μg/mL or less = A) | C (MIC's of greater than 8.0 μg/mL = C) | C (MIC's of greater than 8.0 μg/mL = C) | A (MIC's of 1.0 μg/mL or less = A) | C (MIC's of greater than 8.0 μg/mL = C)
8 | O=C(O)c1cn(C2CC2)c2c3c(c(F)cc2c1=O)N1C(=O)CC[C@H]1COC3 [21/9, (3aS)-13-Cyclopropyl-8-fluoro-6,10-dioxo-3a,4,5,6,10,13-hexahydro-1H,3H-pyrrolo[2′,1′:3,4]oxazepino-[5,6-h]quinoline-11-carboxylic acid] | C (MIC's of greater than 8.0 μg/mL = C) | B (MIC's of greater than 1.0 μg/mL to 8.0 μg/mL = B) | C (MIC's of greater than 8.0 μg/mL = C) | C (MIC's of greater than 8.0 μg/mL = C) | C (MIC's of greater than 8.0 μg/mL = C) | B (MIC's of greater than 1.0 μg/mL to 8.0 μg/mL = B) | C (MIC's of greater than 8.0 μg/mL = C) | C (MIC's of greater than 8.0 μg/mL = C) | C (MIC's of greater than 8.0 μg/mL = C) | C (MIC's of greater than 8.0 μg/mL = C)
9 | NC[C@@H]1CC2CC=Cc3c(c(F)cc4c(=O)c(C(=O)O)cn(C5CC5)c34)N2C1.O=C(O)C(F)(F)F (stereo partly drawn) [22/17, (9S)-9-(Aminomethyl)-4-cyclopropyl-12-fluoro-1-oxo-4,7,7a,8,9,10-hexahydro-1H-pyrrolo-[1′,2′:1,7]azepino[2,3-h]quinoline-2-carboxylic acid trifluoroacetate] | B (MIC's of greater than 1.0 μg/mL to 8.0 μg/mL = B) | A (MIC's of 1.0 μg/mL or less = A) | B (MIC's of greater than 1.0 μg/mL to 8.0 μg/mL = B) | C (MIC's of greater than 8.0 μg/mL = C) | C (MIC's of greater than 8.0 μg/mL = C) | B (MIC's of greater than 1.0 μg/mL to 8.0 μg/mL = B) | C (MIC's of greater than 8.0 μg/mL = C) | C (MIC's of greater than 8.0 μg/mL = C) | B (MIC's of greater than 1.0 μg/mL to 8.0 μg/mL = B) | C (MIC's of greater than 8.0 μg/mL = C)
